Key:
Test in all cases: relative viability (nuclei count vs DMSO), 5 days (fraction); higher = more cells survive
HOP-62 = tested on: HOP-62
Procedure, shortened: (§1)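 Relative viability divides the nuclei count in treated wells by that in vehicle wells. Lung cancer cell lines were seeded in 1536-well plates, dosed by pin tool the next day, and fixed and stained after 5 days in one step with final 0.05% Triton X-100, 1% formaldehyde and 1 ug/ml Hoechst. Dosing was a single drug or a fixed anchor-drug dose plus five library-drug doses (not always all listed) in √10 steps, and values are medians of duplicate plates imaged at 4×.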

NCI-H1299 = tested on: NCI-H1299
Procedure, shortened: as §1

UMC-11 = tested on: UMC-11
Procedure, shortened: as §1

Calu-6 = tested on: Calu-6
Procedure, shortened: as §1

IA-LM = tested on: IA-LM
Procedure, shortened: as §1

EBC-1 = tested on: EBC-1
Procedure, shortened: as §1

NCI-H23 = tested on: NCI-H23
Procedure, shortened: as §1

ABC-1 = tested on: ABC-1
Procedure, shortened: as §1

NCI-H2009 = tested on: NCI-H2009
Procedure, shortened: as §1

NCI-H322M = tested on: NCI-H322M
Procedure, shortened: as §1

NCI-H1703 = tested on: NCI-H1703
Procedure, shortened: as §1

NCI-H1355 = tested on: NCI-H1355
Procedure, shortened: as §1

NCI-H1648 = tested on: NCI-H1648
Procedure, shortened: as §1

How did the relative viability (HOP-62; first compound 0.2 µM) turn out when `COCC1(CO)C(=O)C2CCN1CC2` (stereo not given) [PRIMA-1MET] + CC(C)C[C@H](NC(=O)[C@H](Cc1ccccc1)NC(=O)c1cnccn1)B(O)O [Bortezomib] (partner 0.002 µM) was run?
Its relative viability is 1.02.

And the relative viability (HOP-62; first compound 0.6325 µM)?
The relative viability was 0.648.

What about the relative viability (HOP-62; first compound 2 µM) of the same molecule?
Its relative viability is 0.965.

What about the relative viability (HOP-62; first compound 6.325 µM) of the same molecule?
Its relative viability is 0.736.

And the relative viability (HOP-62; first compound 20 µM)?
The relative viability was 0.443.

And the relative viability (NCI-H1299; first compound 0.2 µM)?
Its relative viability is 1.06.

And the relative viability (NCI-H1299; first compound 0.6325 µM)?
The relative viability was 1.02.

What about the relative viability (NCI-H1299; first compound 2 µM) of the same molecule?
The relative viability was 0.96.

What about the relative viability (NCI-H1299; first compound 6.325 µM) of the same molecule?
The relative viability was 1.09.

What about the relative viability (NCI-H1299; first compound 20 µM) of the same molecule?
Its relative viability is 0.996.

And the relative viability (UMC-11; first compound 0.2 µM)?
The relative viability was 0.778.

And the relative viability (UMC-11; first compound 0.6325 µM)?
Its relative viability is 0.407.

What about the relative viability (UMC-11; first compound 2 µM) of the same molecule?
Its relative viability is 0.666.

What about the relative viability (UMC-11; first compound 6.325 µM) of the same molecule?
Its relative viability is 0.771.

And the relative viability (UMC-11; first compound 20 µM)?
Its relative viability is 0.777.

What about the relative viability (Calu-6; first compound 0.2 µM) of the same molecule?
Its relative viability is 1.11.

And the relative viability (Calu-6; first compound 0.6325 µM)?
The relative viability was 0.95.

And the relative viability (Calu-6; first compound 2 µM)?
Its relative viability is 1.07.

And the relative viability (Calu-6; first compound 6.325 µM)?
The relative viability was 1.02.

And the relative viability (Calu-6; first compound 20 µM)?
Its relative viability is 0.463.

What about the relative viability (IA-LM; first compound 0.2 µM) of the same molecule?
The relative viability was 1.02.

And the relative viability (IA-LM; first compound 0.6325 µM)?
The relative viability was 0.648.

And the relative viability (IA-LM; first compound 2 µM)?
The relative viability was 0.831.

What about the relative viability (IA-LM; first compound 6.325 µM) of the same molecule?
The relative viability was 0.989.

What about the relative viability (IA-LM; first compound 20 µM) of the same molecule?
The relative viability was 0.903.

And the relative viability (EBC-1; first compound 0.2 µM)?
The relative viability was 0.581.

And the relative viability (EBC-1; first compound 0.6325 µM)?
The relative viability was 0.549.

And the relative viability (EBC-1; first compound 2 µM)?
Its relative viability is 0.572.

And the relative viability (EBC-1; first compound 6.325 µM)?
Its relative viability is 0.544.

What about the relative viability (EBC-1; first compound 20 µM) of the same molecule?
Its relative viability is 0.136.

And the relative viability (NCI-H23; first compound 0.2 µM)?
Its relative viability is 0.966.

And the relative viability (NCI-H23; first compound 0.6325 µM)?
The relative viability was 0.724.

What about the relative viability (NCI-H23; first compound 2 µM) of the same molecule?
The relative viability was 0.944.

And the relative viability (NCI-H23; first compound 6.325 µM)?
The relative viability was 1.05.

And the relative viability (NCI-H23; first compound 20 µM)?
The relative viability was 0.116.

What about the relative viability (ABC-1; first compound 0.2 µM) of the same molecule?
Its relative viability is 0.297.

And the relative viability (ABC-1; first compound 0.6325 µM)?
The relative viability was 0.278.

And the relative viability (ABC-1; first compound 2 µM)?
The relative viability was 0.256.

What about the relative viability (ABC-1; first compound 6.325 µM) of the same molecule?
Its relative viability is 0.287.

What about the relative viability (ABC-1; first compound 20 µM) of the same molecule?
The relative viability was 0.276.

What about the relative viability (NCI-H2009; first compound 0.2 µM) of the same molecule?
Its relative viability is 0.714.

And the relative viability (NCI-H2009; first compound 0.6325 µM)?
Its relative viability is 0.885.

And the relative viability (NCI-H2009; first compound 2 µM)?
The relative viability was 0.779.

And the relative viability (NCI-H2009; first compound 6.325 µM)?
The relative viability was 0.975.

And the relative viability (NCI-H2009; first compound 20 µM)?
Its relative viability is 0.0124.

And the relative viability (NCI-H322M; first compound 0.2 µM)?
The relative viability was 1.3.

And the relative viability (NCI-H322M; first compound 6.325 µM)?
The relative viability was 1.29.

What about the relative viability (NCI-H322M; first compound 20 µM) of the same molecule?
Its relative viability is 1.06.

And the relative viability (NCI-H1703; first compound 0.2 µM)?
Its relative viability is 0.568.

And the relative viability (NCI-H1703; first compound 0.6325 µM)?
Its relative viability is 0.369.

What about the relative viability (NCI-H1703; first compound 2 µM) of the same molecule?
The relative viability was 0.311.

And the relative viability (NCI-H1703; first compound 6.325 µM)?
Its relative viability is 0.142.

And the relative viability (NCI-H1703; first compound 20 µM)?
Its relative viability is 0.049.

What about the relative viability (NCI-H1355; first compound 0.2 µM) of the same molecule?
Its relative viability is 1.26.

What about the relative viability (NCI-H1355; first compound 0.6325 µM) of the same molecule?
The relative viability was 1.12.

And the relative viability (NCI-H1355; first compound 2 µM)?
The relative viability was 1.21.

And the relative viability (NCI-H1355; first compound 6.325 µM)?
Its relative viability is 1.31.

What about the relative viability (NCI-H1355; first compound 20 µM) of the same molecule?
The relative viability was 1.18.

How did the relative viability (NCI-H1648; first compound 0.2 µM) turn out when `COCC1(CO)C(=O)C2CCN1CC2` (stereo not given) [PRIMA-1MET] + CC(=O)Nc1cccc(-n2c(=O)n(C3CC3)c(=O)c3c(Nc4ccc(I)cc4F)n(C)c(=O)c(C)c32)c1 [Trametinib] (partner 0.02 µM) was run?
The relative viability was 0.396.

And the relative viability (NCI-H1648; first compound 2 µM)?
Its relative viability is 0.445.

What about the relative viability (NCI-H1648; first compound 20 µM) of the same molecule?
Its relative viability is 0.553.

And the relative viability (HOP-62; first compound 0.2 µM)?
Its relative viability is 0.217.

And the relative viability (HOP-62; first compound 0.6325 µM)?
Its relative viability is 0.34.

What about the relative viability (HOP-62; first compound 2 µM) of the same molecule?
The relative viability was 0.334.

And the relative viability (HOP-62; first compound 6.325 µM)?
Its relative viability is 0.344.

And the relative viability (HOP-62; first compound 20 µM)?
Its relative viability is 0.364.

And the relative viability (UMC-11; first compound 0.2 µM)?
Its relative viability is 0.705.

What about the relative viability (UMC-11; first compound 0.6325 µM) of the same molecule?
The relative viability was 0.569.

What about the relative viability (UMC-11; first compound 2 µM) of the same molecule?
The relative viability was 0.513.

What about the relative viability (UMC-11; first compound 6.325 µM) of the same molecule?
The relative viability was 0.817.

What about the relative viability (UMC-11; first compound 20 µM) of the same molecule?
Its relative viability is 0.749.

What about the relative viability (NCI-H23; first compound 0.2 µM) of the same molecule?
Its relative viability is 0.281.

And the relative viability (NCI-H23; first compound 0.6325 µM)?
Its relative viability is 0.37.

And the relative viability (NCI-H23; first compound 2 µM)?
The relative viability was 0.273.

And the relative viability (NCI-H23; first compound 6.325 µM)?
Its relative viability is 0.328.

And the relative viability (NCI-H23; first compound 20 µM)?
Its relative viability is 0.112.

And the relative viability (NCI-H2009; first compound 0.2 µM)?
The relative viability was 0.246.

What about the relative viability (NCI-H2009; first compound 0.6325 µM) of the same molecule?
Its relative viability is 0.306.

And the relative viability (NCI-H2009; first compound 2 µM)?
The relative viability was 0.237.

What about the relative viability (NCI-H2009; first compound 6.325 µM) of the same molecule?
Its relative viability is 0.252.

And the relative viability (NCI-H2009; first compound 20 µM)?
The relative viability was 0.0028.

What about the relative viability (NCI-H322M; first compound 0.2 µM) of the same molecule?
The relative viability was 0.484.

And the relative viability (NCI-H322M; first compound 0.6325 µM)?
The relative viability was 0.467.

What about the relative viability (NCI-H322M; first compound 6.325 µM) of the same molecule?
Its relative viability is 0.468.

What about the relative viability (NCI-H322M; first compound 20 µM) of the same molecule?
Its relative viability is 0.45.

What about the relative viability (NCI-H1355; first compound 0.2 µM) of the same molecule?
Its relative viability is 0.393.

What about the relative viability (NCI-H1355; first compound 0.6325 µM) of the same molecule?
Its relative viability is 0.462.

And the relative viability (NCI-H1355; first compound 2 µM)?
The relative viability was 0.444.

And the relative viability (NCI-H1355; first compound 6.325 µM)?
The relative viability was 0.427.

And the relative viability (NCI-H1355; first compound 20 µM)?
Its relative viability is 0.428.

Source: the supplement of paper PMC10307832
